Patent US10954228B2 (NATIONAL INSTITUTES OF HEALTH, UNITED STATES DEPARTMENT OF …, priority 2016, dated 2021)

Legend:
Human LDHA = Human LDHA (Homo sapiens (Human), UniProt P00338); assay: human LDHA primary biochemical assay; conditions: biochemical LDHA inhibitory activity, assay of Example 1; activity level classes defined in nM
Summary of the method: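 Human LDHA at 2 nM with 0.06 mM NADH and 0.2 mM sodium pyruvate in 200 mM Tris HCl pH 7.4, 100 μM EDTA, 0.01% TWEEN-20 (final). NADH consumption coupled to resazurin/diaphorase (0.037 mM; 0.133 mg/mL); inhibition read by fluorescence.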

MiaPaCa2 cells = assay: cell-based HT lactate assay by colorimetric/fluorometric detection (cellular inhibition of lactate production); conditions: Homo sapiens, MIA PaCa-2, assay of Example 6
Experimental: This example describes a cell-based metabolite assay by colorimetric/fluorometric detection employed in the characterization of a compound of formula (I) in an embodiment of the invention.
Cell-based HT Lactate assay is a miniaturized Biovision Lactate Colorimetric/Fluorometric Assay Kit (Cat #K607-100). The assay is roughly a 3.5 hour assay run in a 1536 plate format. Cell number optimization should be run for each cell line to achieve an optimal number in which lactate production equals roughly 90% of the standard curve range. Cell number per well optimization has been performed with the following cell lines: MiaPaCa2—500 cells/well, SNU398—500 cells/well, and P493—500 cells/well.

Structure (SMILES)	IC50 (Human LDHA) [nM]	IC50 (MiaPaCa2 cells) [nM]
NS(=O)(=O)c1ccc(Cc2c(-c3ccc(F)c(C4=Cc5ccccc5C4)c3)nn(-c3nc(C(=O)O)cs3)c2CC2CC2)cc1F [Compound 105, 2-(5-(cyclopropylmethyl)-3-(4-fluoro-3-(1H-inden-2-yl)phenyl)-4-(3-fluoro-4-sulfamoylbenzyl)-1H-pyrazol-1-yl)thiazole-4-carboxylic acid]	< 100	< 1000
CC1(C)CC=C(c2cc(-c3nn(-c4nc(C(=O)O)cs4)c(CC4CC4)c3Cc3ccc(S(N)(=O)=O)c(F)c3)ccc2F)CC1 [Compound 106, 2-(5-(cyclopropylmethyl)-3-(6-fluoro-4′,4′-dimethyl-2′,3′,4′,5′-tetrahydro-[1,1′-biphenyl]-3-yl)-4-(3-fluoro-4-sulfamoylbenzyl)-1H-pyrazol-1-yl) thiazole-4-carboxylic acid]	< 100	< 1000
NS(=O)(=O)c1ccc(Cc2c(-c3ccc(F)c(C4=CCC(F)(F)CC4)c3)nn(-c3nc(C(=O)O)cs3)c2CC2CC2)cc1F [Compound 107, 2-(5-(cyclopropylmethyl)-4-(3-fluoro-4-sulfamoylbenzyl)-3-(4′,4′,6-trifluoro-2′,3′,4′,5′-tetrahydro-[1,1′-biphenyl]-3-yl)-1H-pyrazol-1-yl)thiazole-4-carboxylic acid]	< 100	< 1000
NS(=O)(=O)c1ccc(Cc2c(-c3ccc(F)c(C4=CCC5(CC4)CC5)c3)nn(-c3nc(C(=O)O)cs3)c2CC2CC2)cc1F [Compound 108, 2-(5-(cyclopropylmethyl)-3-(4-fluoro-3-(spiro[2.5]oct-5-en-6-yl)phenyl)-4-(3-fluoro-4-sulfamoylbenzyl)-1H-pyrazol-1-yl)thiazole-4-carboxylic acid]	< 100	< 1000
CC(C)(C)c1ccc(C#Cc2cc(-c3nn(-c4nc(C(=O)O)cs4)c(CC4CC4)c3Cc3ccc(S(N)(=O)=O)c(F)c3)ccc2F)s1 [Compound 110, 2-(3-(3-((5-(tert-butyl)thiophen-2-yl)ethynyl)-4-fluorophenyl)-5-(cyclopropylmethyl)-4-(3-fluoro-4-sulfamoylbenzyl)-1H-pyrazol-1-yl)thiazole-4-carboxylic acid]	100 to 1000	< 1000
Cc1ncc(C#Cc2cc(-c3nn(-c4nc(C(=O)O)cs4)c(CC4CC4)c3Cc3ccc(S(N)(=O)=O)c(F)c3)ccc2F)s1 [Compound 111, 2-(5-(cyclopropylmethyl)-3-(4-fluoro-3-((2-methylthiazol-5-yl)ethynyl)phenyl)-4-(3-fluoro-4-sulfamoylbenzyl)-1H-pyrazol-1-yl)thiazole-4-carboxylic acid]	< 100	< 1000
Cc1ccc(C#Cc2cccc(-c3nn(-c4nc(C(=O)O)cs4)c(CC4CC4)c3Cc3ccc(S(N)(=O)=O)c(F)c3)c2)s1 [Compound 112, 2-(5-(cyclopropylmethyl)-4-(3-fluoro-4-sulfamoylbenzyl)-3-(3-((5-methylthiophen-2-yl)ethynyl)phenyl)-1H-pyrazol-1-yl)thiazole-4-carboxylic acid]	< 100	< 1000
Cc1ccc(C#Cc2cc(-c3nn(-c4nc(C(=O)O)cs4)c(CCC4CC4)c3Cc3ccc(S(N)(=O)=O)c(F)c3)ccc2F)s1 [Compound 113, 2-(5-(2-cyclopropylethyl)-3-(4-fluoro-3-((5-methylthiophen-2-yl)ethynyl)phenyl)-4-(3-fluoro-4-sulfamoylbenzyl)-1H-pyrazol-1-yl)thiazole-4-carboxylic acid]	< 100	< 1000
Cc1cnc(C#Cc2cc(-c3nn(-c4nc(C(=O)O)cs4)c(CC4CC4)c3Cc3ccc(S(N)(=O)=O)c(F)c3)ccc2F)s1 [Compound 114, 2-(5-(cyclopropylmethyl)-3-(4-fluoro-3-((5-methylthiazol-2-yl)ethynyl)phenyl)-4-(3-fluoro-4-sulfamoylbenzyl)-1H-pyrazol-1-yl) thiazole-4-carboxylic acid]	< 100	< 1000
Cc1ccc(C#Cc2cccc(-c3nn(-c4nc(C(=O)O)cs4)c(CCC4CC4)c3Cc3ccc(S(N)(=O)=O)c(F)c3)c2)s1 [Compound 115, 2-(5-(2-cyclopropylethyl)-4-(3-fluoro-4-sulfamoylbenzyl)-3-(3-((5-methylthiophen-2-yl)ethynyl)phenyl)-1H-pyrazol-1-yl)thiazole-4-carboxylic acid]	< 100	< 1000
NS(=O)(=O)c1ccc(Cc2c(-c3cccc(C#Cc4ccc(C5CC5)s4)c3)nn(-c3nc(C(=O)O)cs3)c2CC2CC2)cc1F [Compound 117, 2-(5-(cyclopropylmethyl)-3-(3-((5-cyclopropylthiophen-2-yl)ethynyl)phenyl)-4-(3-fluoro-4-sulfamoylbenzyl)-1H-pyrazol-1-yl)thiazole-4-carboxylic acid]	100 to 1000	< 1000
NS(=O)(=O)c1ccc(Cc2c(-c3cccc(C#Cc4ccc(Cl)s4)c3)nn(-c3nc(C(=O)O)cs3)c2CC2CC2)cc1F [Compound 118, 2-(3-(3-((5-chlorothiophen-2-yl)ethynyl)phenyl)-5-(cyclopropylmethyl)-4-(3-fluoro-4-sulfamoylbenzyl)-1H-pyrazol-1-yl)thiazole-4-carboxylic acid]	< 100	< 1000
Cc1ccc(/C=C/c2cccc(-c3nn(-c4nc(C(=O)O)cs4)c(CC4CC4)c3Cc3ccc(S(N)(=O)=O)c(F)c3)c2)s1 [Compound 119, (E)-2-(5-(cyclopropylmethyl)-4-(3-fluoro-4-sulfamoylbenzyl)-3-(3-(2-(5-methylthiophen-2-yl)vinyl)phenyl)-1H-pyrazol-1-yl)thiazole-4-carboxylic acid]	< 100	< 1000
Cc1ccsc1C#Cc1cccc(-c2nn(-c3nc(C(=O)O)cs3)c(CC3CC3)c2Cc2ccc(S(N)(=O)=O)c(F)c2)c1 [Compound 120, 2-(5-(cyclopropylmethyl)-4-(3-fluoro-4-sulfamoylbenzyl)-3-(3-((3-methylthiophen-2-yl)ethynyl)phenyl)-1H-pyrazol-1-yl) thiazole-4-carboxylic acid]	< 100	< 1000
NS(=O)(=O)c1ccc(Cc2c(-c3cccc(C#Cc4ccc(C(F)F)s4)c3)nn(-c3nc(C(=O)O)cs3)c2CC2CC2)cc1F [Compound 121, 2-(5-(cyclopropylmethyl)-3-(3-((5-(difluoromethyl)thiophen-2-yl)ethynyl)phenyl)-4-(3-fluoro-4-sulfamoylbenzyl)-1H-pyrazol-1-yl)thiazole-4-carboxylic acid]	< 100	< 1000
Cc1cnc(C#Cc2cccc(-c3nn(-c4nc(C(=O)O)cs4)c(CC4CC4)c3Cc3ccc(S(N)(=O)=O)c(F)c3)c2)o1 [Compound 122, 2-(5-(cyclopropylmethyl)-4-(3-fluoro-4-sulfamoylbenzyl)-3-(3-((5-methyloxazol-2-yl)ethynyl)phenyl)-1H-pyrazol-1-yl)thiazole-4-carboxylic acid]	< 100	< 1000
Cc1ccc(C#Cc2cccc(-c3nn(-c4nc(C(=O)O)cs4)c(CC4(C)CC4)c3Cc3ccc(S(N)(=O)=O)c(F)c3)c2)s1 [Compound 123, 2-(4-(3-fluoro-4-sulfamoylbenzyl)-5-((1-methylcyclopropyl)methyl)-3-(3-((5-methylthiophen-2-yl)ethynyl)phenyl)-1H-pyrazol-1-yl)thiazole-4-carboxylic acid]	< 100	< 1000
